Test results published in EPA's ToxValDB 9.5.
“And” between values parts separate entries of the source, which are not always exact repeats. Equal values may be shown once.

Assays:
[1] = tested on: Oryctolagus sp.; conditions: acute; dermal; occlusive; New Zealand
[2] = tested on: Rattus norvegicus; conditions: acute, oral, gavage
[3] = tested on: Rattus norvegicus
[4] = tested on: Mus musculus
[5] = tested on: Rattus norvegicus; conditions: oral, M/F
[6] = tested on: Rattus norvegicus; conditions: oral
[7] = chronic, duration: 2 years, inhalation, M/F, no effects
[8] = subchronic, oral, M/F, myocardial degeneration, hepatotoxicity and nephrotoxicity
[9] = short-term, inhalation, M/F, degeneration of olfactory epithelium
[10] = subchronic, oral, gavage, M/F, hepatic lesions
[11] = short-term, duration: 14 days, oral, gavage, M, CD1, hepatic
[12] = reproduction developmental, oral, drinking water, M/F, neurodevelopmental effects
[13] = chronic, duration: 2 years, oral, diet, M/F, reduced body weight
[14] = developmental, inhalation, M/F, reduced pup weight in the f1 and f2 generations
[15] = chronic, duration: 2 years, oral, diet, M/F, decreased body weight gain increased plantar ulcer (females)
[16] = reproduction developmental, oral, M/F, reduced fertility in the F1/F2b generation + Reduced relative kidney weights in F0, F1, and F2b adults
[17] = short-term, duration: 28 days, M, Sprague-Dawley, Endocrine: Hyperplasia/hypertrophy of follicular epithelium of the thyroid
[18] = short-term, duration: 28 days, M, Sprague-Dawley, Neurological: Delayed pupillary reflex

`O=C(OCC1CC=CCC1)C1CC=CCC1` (centres undefined) was tested, and the LD50 [1] was 5010 mg/kg and ≥ 12300 mg/kg and ≤ 13400 mg/kg, the LD50 [2] was 2840 mg/kg and the LD50 ([2]; Sprague-Dawley) was ≥ 1360 mg/kg and ≤ 2390 mg/kg.

Work on `CC(F)F` [1,1-Difluoroethane] yielded an NOAEL [3, 7] of 67500 mg/m3.

For `CN(C)N` [1,1-Dimethylhydrazine], the LOAEL ([4]; chronic, duration: 6 months, inhalation, F, C57BL/6, hepatic) was 0.123 mg/m3.

For `CC(F)(F)Cl` [1-Chloro-1,1-difluoroethane], the NOAEL [3, 7] was 82600 mg/m3.

Work on `OCC(Cl)CCl` (centres undefined) [2,3-Dichloro-1-propanol] yielded an LOAEL [3, 8] of 35 mg/kg-day and an NOAEL [3, 8] of 10 mg/kg-day.

Compound `CC=O` [Acetaldehyde] has an NOAEL ([5]; short-term, duration: 28 days, drinking water, Wistar, Food Consumption: decrease + Water Consumption: decrease + Blood Chemistry: BUN increase, T-Bil decrease, ALT decrease, ALP decrease + …) of 125 mg/kg-day, an LOAEL [3, 9] of 728 mg/m3 and an NOAEL [3, 9] of 273 mg/m3.

`BrC(Br)Br` [Bromoform] was tested, and the LOAEL [3, 10] was 50 mg/kg-day, the NOEL [3, 10] was 25 mg/kg-day and 17.9 mg/kg-day and the NOAEL [4, 11] was 72 mg/kg-day. It also gave an LOAEL ([6]; chronic, duration: 103 weeks, gavage, M/F, Fischer 344, hepatic) of 100 mg/kg-day and an NOAEL ([6]; subchronic, duration: 13 weeks, gavage, M/F, Fischer 344, hepatic) of 25 mg/kg-day.

Compound `[O-][Cl+][O-]` [Chlorite] has an LOAEL [3, 12] of 6 mg/kg-day, an NOAEL [3, 12] of 3 mg/kg-day and an NOAEL ([6]; developmental, duration: 16 weeks, drinking water, M/F, Sprague-Dawley, developmental) of 2.9 mg/kg-day.

With `ClC(Br)Br` [Chlorodibromomethane] the NOEL ([5]; subchronic, duration: 13 weeks, gavage, Fischer 344, Deaths + Histopathology: Liver-Vacuolar change Liver/bile duct- Hyperplasia Liver/centrilobular - necrosis Kidney-Toxic nephropathy Salivary…) was 30 mg/kg-day, the LOAEL [3, 10] was 60 mg/kg-day and the NOEL [3, 10] was 21.4 mg/kg-day and 30 mg/kg-day. It also gave an LOAEL [4, 11] of 37 mg/kg-day and an LOAEL ([6]; chronic, duration: 2 years, gavage, M/F, Fischer 344, hepatic) of 40 mg/kg-day.

`COc1nc(C)nc(NC(=O)NS(=O)(=O)c2ccccc2Cl)n1` [Chlorsulfuron] was tested, and the LEL [3, 13] was 25 mg/kg-day and the NOEL [3, 13] was 5 mg/kg-day.

With `C1CCCCC1` [Cyclohexane] the LOAEL [3, 14] was 24100 mg/m3 and the NOAEL [3, 14] was 6890 mg/m3.

For `CCOP(=O)(OCC)SCCSCC.CCOP(=S)(OCC)OCCSCC` [Demeton], the LEL ([3]; chronic, duration: 2 years, oral, diet, M/F, cholinesterase inhibition, optic nerve degeneration) was 0.04 mg/kg-day.

Work on `CC(C)C(Nc1ccc(C(F)(F)F)cc1Cl)C(=O)OC(C#N)c1cccc(Oc2ccccc2)c1` (centres undefined) [Fluvalinate] yielded an LEL [3, 15] of 2.5 mg/kg-day and an NOEL [3, 15] of 1 mg/kg-day.

With `COC(=O)C(C)Oc1ccc(Oc2ncc(C(F)(F)F)cc2Cl)cc1` (centres undefined) [Haloxyfop-methyl] the LEL [3, 16] was 0.05 mg/kg-day and the NOEL [3, 16] was 0.005 mg/kg-day.

Work on `NN` [Hydrazine] yielded an LOAEL ([4]; chronic, duration: 6 months, inhalation, F, ICR, hepatic) of 0.262 mg/m3.

With `O=C(O)C(F)(F)C(F)(F)C(F)(F)F` [Perfluorobutanoic acid] the NOAEL ([3]; subchronic, duration: 90 days, oral, gavage, M, Sprague-Dawley, Increased hepatocellular hypertrophy (Liver), Decreased total T4 (Thyroid)) was 6 mg/kg-day, the LOAEL ([4]; developmental, duration: 18 days, oral, gavage, CD1, Developmental: Eye opening delayed approximately 1 day) was 35 mg/kg-day and the NOAEL ([4]; reproduction developmental, duration: 18 days, oral, gavage, CD1, Hepatic: Significant increase in absolute and relative liver weight at ?[…]) was 350 mg/kg-day. It also gave an NOAEL ([4]; short-term, duration: 10 days, oral, diet, M, Hepatic: 63% increase in absolute liver weight) of 78 mg/kg-day, an NOAEL ([6]; short-term, duration: 5 days, gavage, M/F, Sprague-Dawley, Immunotoxicological: No histological alterations + Neurological: No histological alterations + Reproductive: No histological alterations) of 184 mg/kg-day and an NOAEL ([6]; short-term, duration: 14 days, diet, M, Sprague-Dawley, Hepatic: Biochemical and ultrastructural evidence of peroxisome proliferation) of 20 mg/kg-day. The NOAEL ([6]; short-term, duration: 28 days, M/F, Sprague-Dawley, Hepatic: Increased absolute and relative liver weight and decreased serum cholesterol in males at ?30 mg/kg/day / hepatocellular …) was 150 mg/kg-day, the LOAEL [6, 17] was 30 mg/kg-day and the NOAEL [6, 17] was 6 mg/kg-day. It also gave an LOAEL [6, 18] of 150 mg/kg-day, an NOAEL [6, 18] of 30 mg/kg-day and an NOAEL ([6]; subchronic, duration: 90 days, M/F, Sprague-Dawley, Hematological: Reduced erythrocyte counts (3.8%), hemoglobin (5.7%), and hematocrit (4.5%)) of 6 mg/kg-day. It also gave an NOAEL ([6]; subchronic, duration: 90 days, M/F, Sprague-Dawley, Hepatic: Diffuse panlobular hepatocyte hypertrophy at 30 mg/kg/day in males + Immunotoxicological: No histological alterations + …) of 30 mg/kg-day, an NOAEL ([6]; subchronic, duration: 90 days, M, Sprague-Dawley, Endocrine: Hypertrophy/hyperplasia of follicular epithelium of the thyroid gland) of 6 mg/kg-day and an LOAEL ([6]; subchronic, duration: 90 days, M, Sprague-Dawley, Endocrine: Hypertrophy/hyperplasia of follicular epithelium of the thyroid gland + Hematological: Reduced erythrocyte counts (3.8%), …) of 30 mg/kg-day.
